Test results published in US20220175761A1, “BI-LIGAND DRUG CONJUGATE AND USE THEREOF” (COHERENT BIOPHARMA (SUZHOU), LIMITED, priority 2019, published 2022).
Numbered stars: 1 amine (or outer) side, 2 acyl side, 3 side chain; on linkers, the order of the positions; unused ones are H or OH. Square brackets hold non-standard residues; d marks the D form. Peptide text beside a SMILES is read from it. * marks the point of attachment. ξ: configuration not given here. X5 = CCc1c2c(nc3ccc(O)cc13)-c1cc3c(c(=O)n1C2)COC(=O)[C@@]3(CC)OC(=O)OCc1ccc(NC(=O)COCC(=O)*)cc1; X4 = O=C([C@H](Cc1cnnn1CCOCCOCCOCCOCCOCCN[*:3])N[*:1])[*:2]; Pteroyl = Nc1nc2ncc(CNc3ccc(C(=O)*)cc3)nc2c(=O)[nH]1; γGlu = O=C(O)[C@H](CCC(=O)[*:2])N[*:1]; ξV = CC(C)C(N)C(=O)O

Tested on: KB, LNCaP, T-47D, RT4 and NCI-H460 tumor cell lines
Experiment: Inhibition of tumor cell expansion, CCK8 (CB-50S)
Type: cell-based, human
Protocol: Cell lines: KB human oral epidermoid carcinoma cells, NCI-H460 human lung cancer cells, RT4 human bladder cancer cells, T-47D human breast cancer cells and LNCaP human prostate cancer cells
The cells were prepared in advance, digested with trypsin, collected and counted; with a complete cell culture medium, KB cells were diluted to 3.5×10^4 cells/ml, LNCaP cells were diluted to 8.0×10^4 cells/ml, T-47D cells were diluted to 1.2×10^4 cells/ml, NCI-H460 cells were diluted to 2.5×10^4 cells/ml, and RT4 cells were diluted to 1.2×10^5 cells/ml; to each well of 96-well plates, 100 μl of the diluted cell solution was added; and negative control and blank control wells were set on each plate. The 96-well plates added with the cells were placed in an incubator at 37° C., 5% CO2 for culturing overnight.
The samples were diluted with a culture medium to desired concentrations (see Table 16). […]
To each well, 15 μl (10% of the liquid volume in a well) of a color developing solution from CCK-8 was added; the plates were incubated at 37° C. for an appropriate time (try to keep the OD value in the range of 1.0-2.0); the covers of the 96-well plates were removed, and the plates were read at 450 nm on a microplate reader (Molecular Devices Spectra MAX Plus). […]

With CCc1c2c(nc3ccc(O)cc13)-c1cc3c(c(=O)n1C2)COC(=O)[C@@]3(CC)OC(=O)OCc1ccc(NC(=O)COCC(=O)NCCOCCOCCOCCOCCOCCn2nncc2C[C@H](NC(=O)CC[C@H](NC(=O)c2ccc(NCc3cnc4[nH]c(N)nc(=O)c4n3)cc2)C(=O)O)C(=O)N[C@@H](CCCCN)C(=O)N[C@@H](CCC(=O)O)C(=O)N[C@@H](Cc2ccccc2)C(=O)N[C@@H](CC(C)C)C(=O)N[C@@H](Cc2cnc[nH]2)C(=O)N2CCC[C@H]2C(=O)N[C@@H](CO)C(=O)N[C@@H](CCCCN)C(=O)NC(C(=O)N[C@@H](CC(=O)O)C(=O)N[C@@H](CC(C)C)C(=O)N2CCC[C@H]2C(=O)N[C@@H](CCCNC(=N)N)C(=O)O)C(C)C)cc1 (some centres unmarked) [CB-50S] ({Pteroyl-γGlu}-[X4](X5)KEFLHPSK[ξV]DLPR-OH) the “inhibitory effect on growth and expansion of tumor cell lines” value (72 hours, CCK-8) was “has an inhibitory effect” and the “IC50 compared between cell lines” value (KB, LNcap, T-47D and RT4 versus NCI-H460) was “significantly lower”.
